Measurements published in PMC6650083, “Structure and functional analysis of a bacterial adhesin sugar-binding domain” (PLoS ONE, 2019).
Values joined by “and” are separate entries in the source; they are usually repeats but may differ in a detail not shown here. Identical values can stand only once. Like-named read-outs stand apart in the source and are kept apart here.

Columns and labels:
MhPA14 [1] = biological target: T1, MhPA14 (Marinobacter hydrocarbonoclasticus, UniProt A0ABF7PGZ6); assay: Isothermal titration calorimetry (ITC); format: binding; settings: 30°C; for Kd: 400 μM MhPA14, 8 mM sugar
T1 sequence (A0ABF7PGZ6 entry or part of it): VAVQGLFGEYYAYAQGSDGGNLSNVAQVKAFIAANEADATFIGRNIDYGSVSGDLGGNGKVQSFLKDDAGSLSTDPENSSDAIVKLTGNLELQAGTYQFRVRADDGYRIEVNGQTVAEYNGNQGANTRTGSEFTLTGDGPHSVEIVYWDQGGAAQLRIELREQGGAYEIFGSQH
Protocol: Isothermal calorimetric titration (ITC) measurements were performed using a MicroCal VP-ITC calorimeter (Malvern) set at 30°C. […] Sugars were added from the computer-controlled rotating syringe (400 RPM) at 5-min intervals into the MhPA14 solution for a total of 50 injections. The data were analyzed by Origin software Version 5.0 (Malvern).

MhPA14 [2] = biological target: T1, MhPA14; assay: Superdex 200 column affinity test (gradient elution of bound MhPA14); format: binding; settings: increasing gradient, 0-55 mM glucose or 0-5 mM EDTA over 45 min
Protocol: A Superdex 200 10/300 GL column (GE Healthcare) was used to probe the resin-binding ability of MhPA14. Approximately 1 mg of MhPA14 was loaded onto the column and washed with 3 column volumes of Protein Buffer. An increasing gradient of either glucose or EDTA was then implemented, rising from 0 mM– 55 mM glucose or 0 mM– 5 mM EDTA over 45 min.

EpA1 = biological target: EpA1; design: method as in PMID 22349222; settings: EpA1 and its sugar of choice; cited from earlier work
MhPA14 [3] = biological target: T1, MhPA14; assay: Dextran-based (Superdex 200 resin) competitive binding assay
Protocol: Superdex 200 (S200) resin stored in 20% ethanol was washed twice in Protein Buffer using 6600 xg centrifugation. A millilitre of 1 mg/mL MhPA14 fused N-terminally to GFP, named GFP_MhPA14 (S1 Fig), was incubated with 300 μL of equilibrated S200 resin. Following 30 sec of vortexing and 2 min of incubation with slight mixing (nutation), the solution was centrifuged at 6600 xg for 2.5 min and the supernatant discarded. Protein buffer (1 mL) was added to the tube, and the process of mixing followed by centrifugation was repeated. The A280 of the resulting supernatant was taken to account for the minimal amount of non-sugar-related protein disassociation from the resin, and was used as a baseline reading. The supernatant was then returned into its original resin mixture tube with the addition of 1.67 μmoles (3 μL of 555 mM) of saccharide. […] After reading the A280 of the supernatant, the above process was repeated for seven tandem saccharide additions of 1.67 μmoles, as well as a final 5-μmole addition. […]
Attempts to solve MhPA14 structures with other sugars bounds–whether by soaking or co-crystallization–were fruitless. […] The amount of GFP-tagged MhPA14 released from the resin upon each sugar addition was measured using absorbance at 280 nm, which was plotted against concentration of free sugar to produce semi-quantitative binding curves (Fig 8). […]

MhPA14 [4] = biological target: T1, MhPA14; assay: Fungal, bacterial and plant polysaccharide array set 2 (Imperial College) probed with GFP_MhPA14; format: binding; settings: 50 μg/mL GFP_MhPA14, anti-GFP antibody detection, average of duplicates
Protocol: The second array was screened at the Carbohydrate Microarray Facility (Glycosciences Laboratory, Imperial College). GFP_MhPA14 (50 μg/mL) was exposed to the ‘Fungal, bacterial and plant polysaccharide array set 2’, which contained duplicates of 20 saccharide probes extracted from a variety of organisms. An Alexa Fluora 647-tagged anti-GFP antibody was used for detection, and the duplicates were averaged to give the final RFU values.

[5] = fucose and glucose are averages of triplicate runs, read-out: Kd
[6] = fucose and glucose are averages of triplicate runs

| Compound | Kd (MhPA14 [1]; [5]) | N (calculated stoichiometry) (MhPA14 [1]; [6]) | Affinity for MhPA14 on polysaccharide array (MhPA14 [4]) | also measured |
| --- | --- | --- | --- | --- |
| O=CC[C@@H](O)[C@H](O)[C@H](O)CO [2-deoxy-D-glucose] | 228 µM | 0.86 | – | – |
| O=C(O)CN(CCN(CC(=O)O)CC(=O)O)CC(=O)O [EDTA] | – | – | – | Concentration at which MhPA14 eluted from Superdex S200 column (MhPA14 [2]): 3.5 mM |
| C[C@H](O)[C@@H](O)[C@@H](O)[C@H](O)C=O [Fucose, 6-deoxy-L-galactose] | 58 µM and 58.2 µM | 0.98 ± 0.03 | – | – |
| O=C[C@H](O)[C@@H](O)[C@@H](O)[C@H](O)CO [Galactose] | – | 1.00 | – | Kd (MhPA14 [1]; Kd): > 1000 µM; Kd (MhPA14 [1]; Kd, fucose and glucose are averages of triplicate runs): 1540 µM; Kd (EpA1): 115 µM |
| OC[C@H]1OC(O)[C@H](O)[C@@H](O)[C@@H]1O (stereo partly drawn) [Glucose, glucose] | 137 µM | 1.01 ± 0.14 | – | Concentration at which MhPA14 eluted from Superdex S200 column (MhPA14 [2]): 25 mM |
| CC(=O)N[C@@H]1[C@@H](O)[C@@H](O)[C@@H](CO)O[C@@H]1O [N-acetylgalactosamine] | – | – | – | Kdapp (apparent dissociation constant) (MhPA14 [3]; GFP_MhPA14 displaced from Superdex 200 resin by free sugar, A280 readout, triplicate, semi-quantitative): Non-binding; Binding in competitive binding assay (MhPA14 [3]; GFP_MhPA14 on Superdex 200 resin): unable to bind MhPA14 at all |
| curdlan | – | – | almost no affinity | – |
| dextran | – | – | modest affinities | – |
| lentinan | – | – | strongest affinity | – |
| pullulan | – | – | modest affinities | – |
